Source: ChEMBL document CHEMBL1667762, “Synthesis, antidepressant and antifungal evaluation of novel 2-chloro-8-methylquinoline amine derivatives” (Eur J Med Chem, 2011)
≈ marks a conversion by molar mass, not a printed value. Calls of active or inactive are those of the source. The rule behind the calls is not given here.

Test system: not listed separately
Experiment: Antifungal activity against Monascus purpureus MTCC 369 after 72 hrs
Format: functional
Details: not given

Compound | MIC | inhibition zone (IZ)
Cc1ccc(NCc2cc3cccc(C)c3nc2Cl)cc1 | 100 µg/mL (≈ 337 µM) | 7.5 mm
CNCCC(Oc1ccc(C(F)(F)F)cc1)c1ccccc1 (stereo unspecified) [FLUOXETINE] | 6.25 µg/mL (≈ 20.2 µM) | 9 mm
Cc1cccc2cc(CNc3ccc(Cl)cc3)c(Cl)nc12 | 50 µg/mL (≈ 158 µM) | 7 mm
Cc1cccc(NCc2cc3cccc(C)c3nc2Cl)c1 | inactive | inactive
Cc1cccc2cc(CNc3ccc(Cl)c(Cl)c3)c(Cl)nc12 | 50 µg/mL (≈ 142 µM) | 8 mm
Cc1cccc2cc(CNc3ccc([N+](=O)[O-])cc3)c(Cl)nc12 | inactive | inactive
COc1ccc(NCc2cc3cccc(C)c3nc2Cl)cc1 | 100 µg/mL (≈ 320 µM) | 5.5 mm
CCCCNCc1cc2cccc(C)c2nc1Cl | inactive | inactive
Cc1cccc2cc(CNc3ccccc3Cl)c(Cl)nc12 | 100 µg/mL (≈ 315 µM) | 6.5 mm
Cc1cccc2cc(CNC3CCCCC3)c(Cl)nc12 | inactive | inactive

Test system: Aspergillus flavus
Experiment: Antifungal activity against Aspergillus flavus MTCC 277 after 72 hrs
Format: functional
Details: not given

Compound | inhibition zone (IZ) [mm]
Cc1ccc(NCc2cc3cccc(C)c3nc2Cl)cc1 | 7
Cc1cccc2cc(CNc3ccc(Cl)cc3)c(Cl)nc12 | 6.5
Cc1cccc(NCc2cc3cccc(C)c3nc2Cl)c1 | 5.5
Cc1cccc2cc(CNc3ccc(Cl)c(Cl)c3)c(Cl)nc12 | 9
Cc1cccc2cc(CNc3ccc([N+](=O)[O-])cc3)c(Cl)nc12 | 6.5
COc1ccc(NCc2cc3cccc(C)c3nc2Cl)cc1 | 6.5
CCCCNCc1cc2cccc(C)c2nc1Cl | 5
Cc1cccc2cc(CNc3ccccc3Cl)c(Cl)nc12 | 6
Cc1cccc2cc(CNC3CCCCC3)c(Cl)nc12 | 5.5

Same assay, conditions: Aspergillus flavus, MTCC 277, 72 h

Compound | MIC [µg/mL]
Cc1ccc(NCc2cc3cccc(C)c3nc2Cl)cc1 | 50 (≈ 168 µM)
CNCCC(Oc1ccc(C(F)(F)F)cc1)c1ccccc1 (stereo unspecified) [FLUOXETINE] | 6.25 (≈ 20.2 µM)
Cc1cccc2cc(CNc3ccc(Cl)cc3)c(Cl)nc12 | 12.5 (≈ 39.4 µM)
Cc1cccc(NCc2cc3cccc(C)c3nc2Cl)c1 | 100 (≈ 337 µM)
Cc1cccc2cc(CNc3ccc(Cl)c(Cl)c3)c(Cl)nc12 | 12.5 (≈ 35.5 µM)
Cc1cccc2cc(CNc3ccc([N+](=O)[O-])cc3)c(Cl)nc12 | 100 (≈ 305 µM)
COc1ccc(NCc2cc3cccc(C)c3nc2Cl)cc1 | 50 (≈ 160 µM)
CCCCNCc1cc2cccc(C)c2nc1Cl | 200 (≈ 761 µM)
Cc1cccc2cc(CNc3ccccc3Cl)c(Cl)nc12 | 50 (≈ 158 µM)
Cc1cccc2cc(CNC3CCCCC3)c(Cl)nc12 | 200 (≈ 692 µM)

Test system: Rattus norvegicus
Experiment: Neurotoxicity in rat assessed as impair in motor coordination at 100 mg/kg, ip after 30 mins by rotarod test (reference value: 116.50 +/- 1.18 sec)
Format: toxicity, organism-based
Set-up: dose 100 mg/kg, route intraperitoneal
Details: in vivo, 0.5 h

Compound | Time [s]
Cc1ccc(NCc2cc3cccc(C)c3nc2Cl)cc1 | 96.5
Cc1cccc2cc(CNc3ccc(Cl)cc3)c(Cl)nc12 | 95.17
Cc1cccc2cc(CNc3ccc(Cl)c(Cl)c3)c(Cl)nc12 | 90.83
Cc1cccc2cc(CNc3ccc([N+](=O)[O-])cc3)c(Cl)nc12 | 93.5
CCCCNCc1cc2cccc(C)c2nc1Cl | 92.34
Cc1cccc2cc(CNC3CCCCC3)c(Cl)nc12 | 97.17

Species: Rattus norvegicus
Experiment: Inhibition of MAO in rat brain homogenate at 0.0005 M using kynuramine as substrate by fluorimetry
Format: tissue-based
Details: not given

Compound | inhibition [%]
Cc1cccc2cc(CNc3ccc(Cl)cc3)c(Cl)nc12 | 23.5
Cc1cccc2cc(CNc3ccc(Cl)c(Cl)c3)c(Cl)nc12 | 35
Cc1cccc2cc(CNC3CCCCC3)c(Cl)nc12 | 20.6

Test system: Rattus norvegicus
Experiment: Antidepressant activity in Albino rat assessed as immobility time at 20 mg/kg, ip by forced swimming test (reference value: 112.4 +/- 2.88 sec)
Format: functional
Details: route intraperitoneal

Compound | Time [s]
CNCCC(Oc1ccc(C(F)(F)F)cc1)c1ccccc1 (stereo unspecified) [FLUOXETINE] | 55.4

Test system: Aspergillus niger
Experiment: Antifungal activity against Aspergillus niger MTCC 281 after 72 hrs
Format: functional
Details: not given

Compound | inhibition zone (IZ) | MIC
Cc1ccc(NCc2cc3cccc(C)c3nc2Cl)cc1 | 6 mm | 
CNCCC(Oc1ccc(C(F)(F)F)cc1)c1ccccc1 (stereo unspecified) [FLUOXETINE] | 10.5 mm | 
Cc1cccc2cc(CNc3ccc(Cl)cc3)c(Cl)nc12 | 7.5 mm | 
Cc1cccc(NCc2cc3cccc(C)c3nc2Cl)c1 | 6 mm | 
Cc1cccc2cc(CNc3ccc(Cl)c(Cl)c3)c(Cl)nc12 | 8 mm | 
Cc1cccc2cc(CNc3ccc([N+](=O)[O-])cc3)c(Cl)nc12 | 7 mm | 
COc1ccc(NCc2cc3cccc(C)c3nc2Cl)cc1 | 6.5 mm | 
CCCCNCc1cc2cccc(C)c2nc1Cl | inactive | inactive
Cc1cccc2cc(CNc3ccccc3Cl)c(Cl)nc12 | 5.5 mm | 
Cc1cccc2cc(CNC3CCCCC3)c(Cl)nc12 | 5.5 mm | 

Same assay, conditions: Aspergillus niger, MTCC 281, 72 h

Compound | MIC [µg/mL]
Cc1ccc(NCc2cc3cccc(C)c3nc2Cl)cc1 | 50 (≈ 168 µM)
CNCCC(Oc1ccc(C(F)(F)F)cc1)c1ccccc1 (stereo unspecified) [FLUOXETINE] | 6.25 (≈ 20.2 µM)
Cc1cccc2cc(CNc3ccc(Cl)cc3)c(Cl)nc12 | 12.5 (≈ 39.4 µM)
Cc1cccc(NCc2cc3cccc(C)c3nc2Cl)c1 | 100 (≈ 337 µM)
Cc1cccc2cc(CNc3ccc(Cl)c(Cl)c3)c(Cl)nc12 | 12.5 (≈ 35.5 µM)
Cc1cccc2cc(CNc3ccc([N+](=O)[O-])cc3)c(Cl)nc12 | 100 (≈ 305 µM)
COc1ccc(NCc2cc3cccc(C)c3nc2Cl)cc1 | 50 (≈ 160 µM)
Cc1cccc2cc(CNc3ccccc3Cl)c(Cl)nc12 | 50 (≈ 158 µM)
Cc1cccc2cc(CNC3CCCCC3)c(Cl)nc12 | 200 (≈ 692 µM)

Species: Rattus norvegicus
Experiment: Neurotoxicity in rat assessed as impair in motor coordination at after 30 mins by rotarod test (reference value: 116.50 +/- 1.18 sec)
Format: toxicity, organism-based
Details: in vivo, 0.5 h

Compound | Time [s]
CNCCC(Oc1ccc(C(F)(F)F)cc1)c1ccccc1 (stereo unspecified) [FLUOXETINE] | 107.2

Test system: Penicillium citrinum
Experiment: Antifungal activity against Penicillium citrinum NCIM 768 after 72 hrs
Format: functional
Details: not given

Compound | inhibition zone (IZ) | MIC
Cc1ccc(NCc2cc3cccc(C)c3nc2Cl)cc1 | 6 mm | 
CNCCC(Oc1ccc(C(F)(F)F)cc1)c1ccccc1 (stereo unspecified) [FLUOXETINE] | 8 mm | 
Cc1cccc2cc(CNc3ccc(Cl)cc3)c(Cl)nc12 | 6 mm | 
Cc1cccc(NCc2cc3cccc(C)c3nc2Cl)c1 | inactive | inactive
Cc1cccc2cc(CNc3ccc(Cl)c(Cl)c3)c(Cl)nc12 | 6.5 mm | 
Cc1cccc2cc(CNc3ccc([N+](=O)[O-])cc3)c(Cl)nc12 | inactive | inactive
COc1ccc(NCc2cc3cccc(C)c3nc2Cl)cc1 | 6.5 mm | 
CCCCNCc1cc2cccc(C)c2nc1Cl | 5 mm | 
Cc1cccc2cc(CNc3ccccc3Cl)c(Cl)nc12 | 6 mm | 
Cc1cccc2cc(CNC3CCCCC3)c(Cl)nc12 | 5.5 mm | 

Same assay, conditions: Penicillium citrinum, NCIM 768, 72 h

Compound | MIC [µg/mL]
Cc1ccc(NCc2cc3cccc(C)c3nc2Cl)cc1 | 100 (≈ 337 µM)
CNCCC(Oc1ccc(C(F)(F)F)cc1)c1ccccc1 (stereo unspecified) [FLUOXETINE] | 6.25 (≈ 20.2 µM)
Cc1cccc2cc(CNc3ccc(Cl)cc3)c(Cl)nc12 | 50 (≈ 158 µM)
Cc1cccc2cc(CNc3ccc(Cl)c(Cl)c3)c(Cl)nc12 | 25 (≈ 71.1 µM)
COc1ccc(NCc2cc3cccc(C)c3nc2Cl)cc1 | 100 (≈ 320 µM)
CCCCNCc1cc2cccc(C)c2nc1Cl | 200 (≈ 761 µM)
Cc1cccc2cc(CNc3ccccc3Cl)c(Cl)nc12 | 100 (≈ 315 µM)
Cc1cccc2cc(CNC3CCCCC3)c(Cl)nc12 | 200 (≈ 692 µM)

Test system: Rattus norvegicus
Experiment: Antidepressant activity in Albino rat assessed as immobility time at 100 mg/kg, ip by forced swimming test (reference value: 112.4 +/- 2.88 sec)
Format: functional
Details: route intraperitoneal

Compound | Time [s]
Cc1ccc(NCc2cc3cccc(C)c3nc2Cl)cc1 | 96.6
Cc1cccc2cc(CNc3ccc(Cl)cc3)c(Cl)nc12 | 77.2
Cc1cccc2cc(CNc3ccc(Cl)c(Cl)c3)c(Cl)nc12 | 73.6
Cc1cccc2cc(CNc3ccc([N+](=O)[O-])cc3)c(Cl)nc12 | 86.8
CCCCNCc1cc2cccc(C)c2nc1Cl | 97.2
Cc1cccc2cc(CNC3CCCCC3)c(Cl)nc12 | 76.6
